Results reported in US6486126B1, “Antioxidant activity in SDG metabolites” (University of Saskatchewan Technologies Incorporated, priority 1999, dated 2002).
Read-outs that look alike come from different tables or passages of the source.

What was measured:
unstimulated blood (BL) = test: Integrated luminol-dependent chemiluminescence of unstimulated blood; assay type: cell-based, human; settings: 2.5 mg/ml, mean ± SE from 16 samples
Protocol: (§1) Antioxidant activity of SDG, SECO, ED, EL and vitamin E (alpha-tochopherol phosphate) was measured using the ability of these compounds to reduce the chemiluminescence of activated PMNLs [polymorphonuclear leukocytes chemiluminescence (PMNL-CL)]. Activated polymorphonuclear leukocytes produce superoxide anion (O2^−), hydrogen peroxide (H2O2), hydroxyl radical (.OH) and singlet oxygen (^1O2). Chemiluminescence is amplified by luminol, which is converted to an excited aminophthalate ion in the presence of oxidizing species like O2^−, H2O2, .OH and ^1O2. Luminol-dependent CL reflects the amount of activated oxygen species generated from activated phagocytes, thus, this method can be used to monitor the reactive oxygen species produced by PMNLs. Agents which scavenge O2^−, H2O2, .OH and ^1O2 would reduce PMNL-CL. The SDG, SECO, ED and EL were all obtained from Agriculture and Agri-Food Canada, Saskatoon, Saskatchewan.
Venous blood from healthy subjects, after their informed consent, was collected in ethylenediamine tetraacetic acid (EDTA)-containing tubes for PMNL counts, and PMNL-CL. PMNL and WBC counts were made using Technicon H6000 system (Technicon Instruments, Tarrytown, N.Y.). PMNL-CL a measure of reactive oxygen species produced by PMNLs was measured by a method described in Prasad et al., Effect of polymorphonuclear leukocyte-derived oxygen free radicals and hypochlorous acid or cardiac function and some biochemical parameters, Am. Heart J. 119:538-550, 1990. Blood (0.05 ml) was added to a glass tube containing Hank's balanced salt solution (HBSS) buffer (pH 7.40) and luminol at a final concentration of 10^−4 M. To assess the ability of various test materials in the varying amounts (1.0, 2.5, 5.0 and 10 mg/ml) in the powder form, were each added to the test tube containing blood, shaken well and incubated for 15 minutes at room temperature. The final volume of the mixture in these tubes was 0.5 ml. All the test tubes were placed in a luminometer for 5 min at 37° C., and phagocytosis was initiated by the addition of 0.1 ml (10 mg/ml) of opsonized zymosan prepared by previously described method (Prasad et al., 1990). The chemiluminescence was monitored with an Auto Lumat, LB953 luminometer (Egg Berthold, Berthold Analytical Instrument Inc., 472 Amherst Street, Nashua, N.H., 03063) for 3 seconds every 2 or 3 minutes (depending on the sample number) for a period of 60 minutes. The integrated area under the curve gives the total luminal-dependent chemiluminescent response during the period of monitoring, which represents the oxygen derived CL. […]
The results are expressed as mean±SE and n=sample size. […]

[1] = system: zymosan-stimulated polymorphonuclear leukocytes; test: Luminol-dependent chemiluminescence of zymosan-stimulated PMNLs in blood (PMNL-CL); assay type: cell-based, human; settings: for inhibition at 1000 µg/mL / inhibition at 2500 µg/mL / inhibition at 5000 µg/mL: Homo sapiens, Leukocyte; for antioxidant potency as compared to vitamin E: ratio of inhibition of PMNL-CL at 2.5 mg/ml, relative to vitamin E
Protocol: as §1
Venous blood from healthy subjects, after their informed consent, was collected in ethylenediamine tetraacetic acid (EDTA)-containing tubes for PMNL counts, and PMNL-CL. PMNL and WBC counts were made using Technicon H6000 system (Technicon Instruments, Tarrytown, N.Y.). PMNL-CL a measure of reactive oxygen species produced by PMNLs was measured by a method described in Prasad et al., Effect of polymorphonuclear leukocyte-derived oxygen free radicals and hypochlorous acid or cardiac function and some biochemical parameters, Am. Heart J. 119:538-550, 1990. Blood (0.05 ml) was added to a glass tube containing Hank's balanced salt solution (HBSS) buffer (pH 7.40) and luminol at a final concentration of 10^−4 M. To assess the ability of various test materials in the varying amounts (1.0, 2.5, 5.0 and 10 mg/ml) in the powder form, were each added to the test tube containing blood, shaken well and incubated for 15 minutes at room temperature. The final volume of the mixture in these tubes was 0.5 ml. All the test tubes were placed in a luminometer for 5 min at 37° C., and phagocytosis was initiated by the addition of 0.1 ml (10 mg/ml) of opsonized zymosan prepared by previously described method (Prasad et al., 1990). The chemiluminescence was monitored with an Auto Lumat, LB953 luminometer (Egg Berthold, Berthold Analytical Instrument Inc., 472 Amherst Street, Nashua, N.H., 03063) for 3 seconds every 2 or 3 minutes (depending on the sample number) for a period of 60 minutes. The integrated area under the curve gives the total luminal-dependent chemiluminescent response during the period of monitoring, which represents the oxygen derived CL. The difference in the integrated area under zymosan-activated in the absence and in the presence of various compounds under investigation is designated as particular compound inhibitable oxygen derived radical CL. The unit for chemiluminescence is in counts per minute (cpm). The integrated area under the curve is in cpm.m. The unit for chemiluminescence is cpm.m.10^−6 PMNLs because the chemiluminescence is expressed in terms of 10^−6 PMNL counts. The peak chemiluminescence is cpm 10^−6 PMNLs.
The results are expressed as mean±SE and n=sample size. One-way Analysis of Variance (ANOVA) followed by Scheffe test was used to derive differences between different groups. A “p” value of less than 0.05 was considered significant.

[2] = 1.0 mg/ml, concentration-response (FIGS. 4-8)
[3] = 2.5 mg/ml, concentration-response (FIGS. 4-8), read-out: inhibition of zymosan-stimulated PMNL-CL
[4] = 5.0 mg/ml, concentration-response (FIGS. 4-8)
[5] = zymosan-stimulated, 2.5 mg/ml, comparison experiment (FIG. 3), read-out: percentage inhibition of PMNL-CL
[6] = 2.5 mg/ml, concentration-response (FIGS. 4-8)
[7] = zymosan-stimulated, 2.5 mg/ml, comparison experiment (FIG. 3)
[8] = 10.0 mg/ml, concentration-response (FIGS. 4-8)

OC[C@H](Cc1cccc(O)c1)[C@H](CO)Cc1cccc(O)c1 [ED, enterodiol]
Integrated CL of unstimulated blood (BL) in the presence of compound (unstimulated blood (BL)): 1.073 ± 0.048 ×10^6 cpm · m · 10^−6 PMNLs
inhibition at 1000 µg/mL [1, 2]: 82%
inhibition at 2500 µg/mL [1, 3]: 96%
inhibition at 5000 µg/mL [1, 4]: 95%
inhibition at 2500 µg/mL [1, 5]: 94.2%
antioxidant potency as compared to vitamin E [1]: 5.02 times
antioxidant potency relative to SDG (times more potent than SDG) [1]: 3.95 times

O=C1OC[C@H](Cc2cccc(O)c2)[C@H]1Cc1cccc(O)c1 [EL, enterolactone]
Integrated CL of unstimulated blood (BL) in the presence of compound (unstimulated blood (BL)): 2.177 ± 0.138 ×10^6 cpm · m · 10^−6 PMNLs
inhibition at 1000 µg/mL [1, 2]: 81%
inhibition at 2500 µg/mL [1, 3]: 86%
inhibition at 5000 µg/mL [1, 4]: 83%
inhibition at 2500 µg/mL [1, 5]: 81.6%
antioxidant potency as compared to vitamin E [1]: 4.35 times
antioxidant potency relative to SDG (times more potent than SDG) [1]: 3.43 times

COc1cc(C[C@@H](CO[C@@H]2O[C@H](CO)[C@@H](O)[C@H](O)[C@H]2O)[C@H](CO[C@@H]2O[C@H](CO)[C@@H](O)[C@H](O)[C@H]2O)Cc2ccc(O)c(OC)c2)ccc1O [SDG, secoisolariciresinol diglucoside, reference compound]
Integrated CL of unstimulated blood (BL) in the presence of compound (unstimulated blood (BL)): 2.463 ± 0.159 ×10^6 cpm · m · 10^−6 PMNLs
inhibition of zymosan-stimulated PMNL-CL [1, 2]: 24%
inhibition of zymosan-stimulated PMNL-CL [1, 6]: 30%
inhibition of zymosan-stimulated PMNL-CL [1, 4]: 48%
antioxidant potency as compared to vitamin E [1]: 1.27 times
percentage inhibition of PMNL-CL [1, 7]: 23.87%

COc1cc(C[C@@H](CO)[C@H](CO)Cc2ccc(O)c(OC)c2)ccc1O [SECO, secoisolariciresinol]
Integrated CL of unstimulated blood (BL) in the presence of compound (unstimulated blood (BL)): 0.878 ± 0.023 ×10^6 cpm · m · 10^−6 PMNLs
inhibition of zymosan-stimulated PMNL-CL [1, 2]: 78%
inhibition of zymosan-stimulated PMNL-CL [1, 6]: 93%
inhibition of zymosan-stimulated PMNL-CL [1, 4]: 99.5%
inhibition of zymosan-stimulated PMNL-CL [1, 8]: 100%
antioxidant potency as compared to vitamin E [1]: 4.86 times
antioxidant potency relative to SDG (times more potent than SDG) [1]: 3.82 times
percentage inhibition of PMNL-CL [1, 7]: 91.2%

Cc1c(C)c2c(c(C)c1OP(=O)(O)O)CC[C@@](C)(CCC[C@H](C)CCC[C@H](C)CCCC(C)C)O2 [vitamin E, alpha-tochopherol phosphate, reference compound]
effect on zymosan-stimulated PMNL-CL (in words) ([1]; 1.0 mg/ml): increase in the PMNL-CL
inhibition of zymosan-stimulated PMNL-CL [1, 6]: 17%
inhibition of zymosan-stimulated PMNL-CL [1, 4]: 88%
inhibition of zymosan-stimulated PMNL-CL [1, 8]: 97%
percentage inhibition of PMNL-CL [1, 7]: 18.75%
